Values joined by “and” are separate entries in the source; they are usually repeats but may differ in a detail not shown here. Equal values may be shown once.
Experiments:
[1] = biological target: Polyketide synthase Pks13 (Mycobacterium tuberculosis (strain ATCC 25618 / H37Rv), UniProt I6X8D2); assay: Mycobacterium tuberculosis Polyketide synthase 13 Thioesterase (PKS13); type: functional
[2] = biological target: Lysine--tRNA ligase (Plasmodium falciparum (isolate 3D7), UniProt Q8IDJ8); assay: Pf-KRS-1 (Lysyl-RNA Synthetase-1, KRS-1, cytosolic KRS) from Plasmodium falciparum. Inhibitor assay, 384 well plate, luminescence read.; type: functional
[3] = biological target: T1, Coenzyme A biosynthesis bifunctional protein CoaBC (Mycobacterium tuberculosis (strain ATCC 25618 / H37Rv), UniProt P9WNZ1); assay: Biomol Green assay for MtCoaBC inhibitor, OD650 read; type: functional
T1 sequence (P9WNZ1 whole entry): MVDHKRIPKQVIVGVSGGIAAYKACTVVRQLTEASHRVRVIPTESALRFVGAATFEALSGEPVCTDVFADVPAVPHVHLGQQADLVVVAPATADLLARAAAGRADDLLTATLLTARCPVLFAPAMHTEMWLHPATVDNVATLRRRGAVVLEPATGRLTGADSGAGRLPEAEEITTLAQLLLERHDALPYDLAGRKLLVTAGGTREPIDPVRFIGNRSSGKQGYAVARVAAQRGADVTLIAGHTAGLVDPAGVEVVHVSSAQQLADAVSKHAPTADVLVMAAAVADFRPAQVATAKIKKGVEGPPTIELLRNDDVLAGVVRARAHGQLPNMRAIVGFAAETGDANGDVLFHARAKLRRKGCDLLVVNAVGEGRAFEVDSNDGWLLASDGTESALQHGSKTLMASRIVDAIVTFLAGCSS

[4] = biological target: T2, Histidine--tRNA ligase (Leishmania infantum, UniProt A4I591); assay: Leishmania infantum Histidine tRNA synthetase (LdHisRS); type: functional
T2 sequence (A4I591 whole entry): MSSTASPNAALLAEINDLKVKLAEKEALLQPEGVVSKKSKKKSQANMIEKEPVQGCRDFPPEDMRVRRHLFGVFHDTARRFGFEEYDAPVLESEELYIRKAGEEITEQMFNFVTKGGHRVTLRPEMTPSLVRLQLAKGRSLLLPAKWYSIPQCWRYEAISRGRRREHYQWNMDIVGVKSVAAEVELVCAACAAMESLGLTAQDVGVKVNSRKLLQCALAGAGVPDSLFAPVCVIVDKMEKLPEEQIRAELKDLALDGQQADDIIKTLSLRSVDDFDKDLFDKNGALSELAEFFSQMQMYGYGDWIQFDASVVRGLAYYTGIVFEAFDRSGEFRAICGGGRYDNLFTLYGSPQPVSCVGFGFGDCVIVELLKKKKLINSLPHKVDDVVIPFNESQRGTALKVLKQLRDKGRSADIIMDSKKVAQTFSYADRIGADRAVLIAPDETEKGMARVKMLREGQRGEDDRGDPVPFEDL

[5] = In vitro enzyme assay to detect hydrolysis of chlorophenol red-beta-D-[…] directly proportional to the number of Toxoplasma stably expressing beta-galactosidase; type: functional, organism-based, Toxoplasma gondii; conditions: Toxoplasma gondii
[6] = microbe, parasite or virus in culture; conditions: Mycobacterium tuberculosis, 96 h, read-out: pIC50 (converted)
[7] = microbe, parasite or virus in culture; conditions: Mycobacterium tuberculosis, 72 h, read-out: pIC50 (converted)

Polyketide synthase Pks13, sequence (I6X8D2 whole entry): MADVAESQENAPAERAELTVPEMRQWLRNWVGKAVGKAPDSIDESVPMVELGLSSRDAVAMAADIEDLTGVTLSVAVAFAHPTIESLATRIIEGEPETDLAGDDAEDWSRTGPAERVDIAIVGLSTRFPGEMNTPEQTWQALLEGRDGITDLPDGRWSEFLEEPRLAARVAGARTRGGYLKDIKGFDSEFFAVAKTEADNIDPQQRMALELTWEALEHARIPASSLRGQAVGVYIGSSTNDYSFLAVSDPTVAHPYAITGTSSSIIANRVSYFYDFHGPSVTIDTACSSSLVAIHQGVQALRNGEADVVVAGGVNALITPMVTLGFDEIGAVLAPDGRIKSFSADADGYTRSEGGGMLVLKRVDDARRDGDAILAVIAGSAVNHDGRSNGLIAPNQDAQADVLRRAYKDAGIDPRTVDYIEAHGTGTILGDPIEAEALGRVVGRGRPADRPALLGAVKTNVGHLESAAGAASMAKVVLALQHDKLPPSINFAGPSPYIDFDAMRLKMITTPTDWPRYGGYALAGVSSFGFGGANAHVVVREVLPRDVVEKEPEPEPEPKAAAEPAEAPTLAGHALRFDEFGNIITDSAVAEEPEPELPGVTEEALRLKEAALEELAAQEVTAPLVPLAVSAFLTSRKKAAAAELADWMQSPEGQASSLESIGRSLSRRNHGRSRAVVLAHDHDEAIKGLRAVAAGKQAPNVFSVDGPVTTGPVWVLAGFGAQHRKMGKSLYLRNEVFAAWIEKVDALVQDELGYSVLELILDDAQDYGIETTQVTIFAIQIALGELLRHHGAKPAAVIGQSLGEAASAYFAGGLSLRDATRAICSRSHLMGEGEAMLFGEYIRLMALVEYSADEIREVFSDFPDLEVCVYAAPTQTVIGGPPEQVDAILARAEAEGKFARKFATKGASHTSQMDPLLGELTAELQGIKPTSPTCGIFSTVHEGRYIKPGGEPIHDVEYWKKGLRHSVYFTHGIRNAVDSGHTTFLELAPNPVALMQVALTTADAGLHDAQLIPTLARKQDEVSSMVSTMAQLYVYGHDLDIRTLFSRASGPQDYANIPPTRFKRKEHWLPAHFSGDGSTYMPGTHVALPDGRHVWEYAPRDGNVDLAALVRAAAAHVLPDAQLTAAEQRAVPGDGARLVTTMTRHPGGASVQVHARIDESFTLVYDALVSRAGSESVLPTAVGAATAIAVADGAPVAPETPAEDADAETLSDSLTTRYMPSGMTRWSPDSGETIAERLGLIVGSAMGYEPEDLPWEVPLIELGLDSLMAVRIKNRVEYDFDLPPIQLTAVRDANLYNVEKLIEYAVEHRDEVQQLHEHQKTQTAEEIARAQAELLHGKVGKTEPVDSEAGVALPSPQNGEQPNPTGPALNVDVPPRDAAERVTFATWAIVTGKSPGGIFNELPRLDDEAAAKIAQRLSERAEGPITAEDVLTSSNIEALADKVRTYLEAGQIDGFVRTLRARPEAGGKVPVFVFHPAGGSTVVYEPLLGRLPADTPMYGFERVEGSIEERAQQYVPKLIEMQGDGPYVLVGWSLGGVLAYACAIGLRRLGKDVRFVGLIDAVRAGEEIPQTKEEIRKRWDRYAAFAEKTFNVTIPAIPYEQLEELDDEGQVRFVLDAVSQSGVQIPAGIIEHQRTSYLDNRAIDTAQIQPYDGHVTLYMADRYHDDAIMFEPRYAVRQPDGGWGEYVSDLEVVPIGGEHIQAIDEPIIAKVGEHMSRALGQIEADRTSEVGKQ
Lysine--tRNA ligase, sequence (Q8IDJ8 whole entry): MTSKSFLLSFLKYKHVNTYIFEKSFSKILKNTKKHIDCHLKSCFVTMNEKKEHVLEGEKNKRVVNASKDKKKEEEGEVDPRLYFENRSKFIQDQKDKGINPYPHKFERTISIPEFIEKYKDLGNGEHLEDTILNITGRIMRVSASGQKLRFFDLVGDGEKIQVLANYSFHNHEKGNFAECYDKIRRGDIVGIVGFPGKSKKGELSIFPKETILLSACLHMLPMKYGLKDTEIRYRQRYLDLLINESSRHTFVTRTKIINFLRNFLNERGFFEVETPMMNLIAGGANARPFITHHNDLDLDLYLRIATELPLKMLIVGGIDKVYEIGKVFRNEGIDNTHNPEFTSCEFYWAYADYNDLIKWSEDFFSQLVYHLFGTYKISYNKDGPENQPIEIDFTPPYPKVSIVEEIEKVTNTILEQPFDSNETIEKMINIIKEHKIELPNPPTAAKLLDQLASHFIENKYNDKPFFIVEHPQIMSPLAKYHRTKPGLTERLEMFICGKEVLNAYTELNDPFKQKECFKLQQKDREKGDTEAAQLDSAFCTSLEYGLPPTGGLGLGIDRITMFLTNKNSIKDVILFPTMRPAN

Structure (SMILES) | IC50 [1] | also measured
CCN(Cc1nc2c(cnn2C)c(=O)[nH]1)c1ccccc1 | > 100 µM | 
Cc1c(C(=O)N2CCOCC2)nnn1-c1ccc2ncccc2c1 | > 100 µM | 
Cc1ccc(CN2CCCC(c3nn(C)c4nccnc34)C2)s1 (configuration not stated) | > 100 µM | 
Cn1ccc(C(=O)NCc2cccc(NC(=O)C3CCC3)c2)cc1=O | > 100 µM | 
COc1ccc(C2CCCN2C(=O)c2cc3c([nH]c2=O)CCC3)cc1 (configuration not stated) | 31.9 µM and 34.5 µM | 
CCN(CC)C(=O)c1cc(C2CCCN2C)ccn1 (configuration not stated) | > 100 µM | 
Cc1ccc(CNC(=O)C2CCCCN2C(=O)OC(C)(C)C)cn1 (configuration not stated) | > 100 µM | 
CC(NC(=O)NCC(C)(C)C(N)=O)c1nc(-c2ccccc2)cs1 (configuration not stated) | > 100 µM | 
CCn1c(SCC(=O)N2CCCC2)nc2cc(C)[nH]c2c1=O | > 100 µM | 
Cc1cccc(-n2nnnc2C(C)(C)Nc2ccccc2C)c1 | 13.8 µM and 11.7 µM | 
CCOCC1CN(C(=O)c2cccs2)Cc2cnn(CC3CC3)c21 (configuration not stated) | > 100 µM | 
O=C(c1cnccn1)N1C[C@@H]2CC[C@H](C1)N(S(=O)(=O)c1cccnc1)C2 | > 100 µM | 
Cc1noc(CNc2ccc(CC(=O)N3CCSCC3)cc2)n1 | > 100 µM | 
Cc1ccc(-c2ncc(C(=O)NCCNc3ncccn3)s2)c(C)c1 | 12 µM and 14.8 µM | 
CCC1(C)Cc2ccccc2-c2nc(NCCO)nc(O)c21 (configuration not stated) | 31.8 µM and 28.8 µM | 
CC(C)(C)c1nc(CN(CCC2CCCCC2)CC(N)=O)no1 | > 100 µM | 
Cc1ccc2cc(CNCCCN3CCOCC3)c(=O)[nH]c2c1C | > 100 µM | 
CC(=O)c1ccc(N2CCCC(CO)(CCc3ccccc3)C2)nc1 (configuration not stated) | 72.2 µM and 69.8 µM | 
Cc1nc(CN(C)C(=O)NC(C)c2ccc3c(c2)OCCO3)cs1 (configuration not stated) | > 100 µM | 
O=C(c1ccc2c(c1)CCCC2)N1CCn2ncnc2C1 |  | IC50 [2]: > 50.1 µM; IC50 [3]: > 30.2 µM
CC(=O)N1N=C(c2ccco2)OC1C(=O)NCC(C)C (configuration not stated) | > 100 µM | 
CN(C)CC(=O)N1Cc2nc(C(=O)NCc3ccccc3)oc2C1 | > 100 µM | 

Structure (SMILES) | IC50 [1] | also measured
CCOC(=O)CNC(=O)NCc1cc(C)n(-c2ccccc2OC)c1C | > 100 µM | 
CC(C)(C)c1cc(NC(=O)CN2CCC(N3CCNC3=O)CC2)on1 | > 100 µM | 
c1cnc(N2CCC3(CCCN(CC4CCCCC4)C3)C2)cn1 (configuration not stated) | > 100 µM | 
Cc1ccc(C)c(OC2CCN(C(=O)CNc3ccccc3Cl)CC2)c1 | 10.7 µM and 12.7 µM | 
CN(C)c1nccc(-c2c[nH][nH]c2=O)n1 | > 100 µM | 
CC(C)c1nc(CN(C)C2CCN(CCNS(C)(=O)=O)C2)no1 (configuration not stated) | > 100 µM | 
CCC(CC)C(=O)n1ccn(S(=O)(=O)c2ccc(C)cc2)c1=O | 20 µM and 19.7 µM | 
CCOCC1CCCN(C(=O)NCc2ccc(-c3ccn[nH]3)cc2)C1 (configuration not stated) | > 100 µM | 
CCC(=O)NCC(=O)NCC(C)(C)c1cccc(Br)c1 | > 100 µM | 
COC(=O)c1sc2cccc(F)c2c1CNC(=O)C1CCOC1 (configuration not stated) | > 100 µM | 
CN(C)C[C@@H]1[C@H]2CN(C(=O)c3cc(=O)[nH]c4ccc(F)cc34)C[C@@H]12 | 98.5 µM and > 100 µM | 
O=S(=O)(c1c(N2CCCCC2)ccc2nonc12)N1CCCCC1 | 26.1 µM and 29.2 µM | 
CCc1nnc(CN2CCOC(Cn3cc(C)cn3)C2)o1 (configuration not stated) | > 100 µM | 
N#Cc1cccc(N2CCC(CO)(CCCc3ccccc3)CC2)n1 | > 18.6 µM and 25.5 µM | 
CCc1cccc(NS(=O)(=O)c2cc(C)c(C(=O)O)s2)c1 | 16.6 µM and 11.6 µM | 
CNC(=O)CNC1CC2(CCN(c3ncccn3)CC2)c2ccccc21 (configuration not stated) | > 100 µM | 
O=C1CNc2ncnc(N3CCN(Cc4ccccc4F)CC3)c2N1 | > 100 µM | 
CC1CCc2nc(O)c(C(=O)NCCCN3CCN(C)CC3)cc2C1 (configuration not stated) | 31.6 µM and 37.1 µM | 
Cn1nc2c(cc1=O)CN(c1ncnc3sccc13)CC2 |  | IC50 [4]: 6.32 µM and 5.55 µM; IC50 [2]: > 50.1 µM; IC50 [3]: > 30.2 µM; IC50 [5]: 9.58 µM
CCOCC1CCN(C(=O)C(c2ccccc2F)N(C)C)CC1 (configuration not stated) |  | IC50 [6]: > 50.1 µM; IC50 [2]: > 50.1 µM; IC50 [3]: > 30.2 µM; IC50 [7]: > 50.1 µM
COc1ccsc1C(=O)Nc1cc(Cl)c(=O)n(C)c1 |  | IC50 [4]: 12.3 µM and 10.6 µM; IC50 [2]: > 50.1 µM; IC50 [3]: > 30.2 µM

— ChEMBL document CHEMBL3988442, “University of Dundee, Small-Polar-MMV Screening Library” (2021)
